From US12023308B2, “Agents for reversing toxic proteinopathies” (THE BROAD INSTITUTE, INC., priority 2019, dated 2024)
“Also recorded” adds a separate entry of the source.

Key:
[1] = biological target: T1, TMED9 (Homo sapiens, UniProt Q9BVK6); experiment: TMED9 abundance (IF) in patient iPSC-derived kidney organoids; format: cell-based; conditions: 10 μM, 72 hours
T1 construct: TMED9 abundance in P cells at escalating temperatures (as indicated) with or without treatment with BRD-4780; endogenous in cells; host or cells: P cells (intact cells treated, then heated and lysed)
T1 sequence (Q9BVK6 38-235): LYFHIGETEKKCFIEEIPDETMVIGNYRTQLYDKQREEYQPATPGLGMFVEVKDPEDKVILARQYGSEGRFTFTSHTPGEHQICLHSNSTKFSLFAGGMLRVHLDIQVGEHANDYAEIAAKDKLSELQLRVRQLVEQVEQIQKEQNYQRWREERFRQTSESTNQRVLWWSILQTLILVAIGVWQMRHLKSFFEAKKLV
Experimental: Kidney organoids were immersion-fixed for 15 min in 4% PFA at 4° C. and subsequently frozen in OCT using dry ice and 100% ethanol. Six […] cryostat sections (CM1950, Leica) were thaw-mounted on microscope slides (Fisherbrand™ Superfrost™ Plus, Fisher Scientific) and kept in the cryostat (at −26° C.) for the duration of the sectioning process. Prior to immunostaining, organoid sections were rinsed in PBS for 5 min, incubated for 20 min at room temperature (RT) in PBS blocking solution containing 5% normal donkey serum (530-100ML, EMD Millipore) and 1.5% Tween® 20 (P1379, Sigma-Aldrich), then incubated overnight at 4° C. with primary antibodies diluted in the same blocking solution (1:500, monoclonal Armenian hamster anti-MUC1, Ab80952, Abcam; 1:500, monoclonal Fab-A-VSH anti-fsMUC1, AbD22655.4, Bio-Rad; 1:300 monoclonal Rat anti-E Cadherin [DECMA-1], ab11512, Abcam; 1:500 polyclonal Rabbit anti-Laminin, L9393-100UL, Sigma-Aldrich; 1:500 Na/K-ATPase, ab76020, Abcam; 1:300 Fluorescein labeled Lotus Tetragonolobus Lectin (LTL), FL-1321, Vector laboratories; 1:100, polyclonal, Rabbit anti-TMED9, 21620-1-AP, Proteintech). […]

[2] = biological target: T2, Nischarin (Homo sapiens, UniProt Q9Y2I1); experiment: Cellular thermal shift assay (CETSA) for Nischarin in P cells; format: binding; conditions: 5 μM, 1 hour
T2 construct: Densitometric analysis of Nischarin abundance after treatment of P cells with BRD-4780 (5 μM, 1 hour) or DMSO; endogenous in cells; host or cells: P cells
Experimental: CETSAs were performed as previously described (Jafari et al., 2014; Reinhard et al., 2015). In brief, P cells were treated in the presence or absence of BRD-4780 for 1 hr, harvested (trypsinized), washed in PBS, resuspended in PBS (containing protease inhibitors) and distributed in 0.2 ml PCR tubes (100 μl; 600,000 cells). Cells were incubated at their designated temperatures for 3 min, then at 25° C. for 3 min and lysed by the addition of 1% NP-40. Immediately thereafter, samples were snap frozen and thawed using thermal cycler set at 25° C. Samples were spun at 20′000×g for 20 min (4° C.) to remove precipitated protein and the supernatant was analyzed by Western blot to examine the TMED9/Nischarin thermal stability.

T2 sequence (Q9Y2I1 whole entry): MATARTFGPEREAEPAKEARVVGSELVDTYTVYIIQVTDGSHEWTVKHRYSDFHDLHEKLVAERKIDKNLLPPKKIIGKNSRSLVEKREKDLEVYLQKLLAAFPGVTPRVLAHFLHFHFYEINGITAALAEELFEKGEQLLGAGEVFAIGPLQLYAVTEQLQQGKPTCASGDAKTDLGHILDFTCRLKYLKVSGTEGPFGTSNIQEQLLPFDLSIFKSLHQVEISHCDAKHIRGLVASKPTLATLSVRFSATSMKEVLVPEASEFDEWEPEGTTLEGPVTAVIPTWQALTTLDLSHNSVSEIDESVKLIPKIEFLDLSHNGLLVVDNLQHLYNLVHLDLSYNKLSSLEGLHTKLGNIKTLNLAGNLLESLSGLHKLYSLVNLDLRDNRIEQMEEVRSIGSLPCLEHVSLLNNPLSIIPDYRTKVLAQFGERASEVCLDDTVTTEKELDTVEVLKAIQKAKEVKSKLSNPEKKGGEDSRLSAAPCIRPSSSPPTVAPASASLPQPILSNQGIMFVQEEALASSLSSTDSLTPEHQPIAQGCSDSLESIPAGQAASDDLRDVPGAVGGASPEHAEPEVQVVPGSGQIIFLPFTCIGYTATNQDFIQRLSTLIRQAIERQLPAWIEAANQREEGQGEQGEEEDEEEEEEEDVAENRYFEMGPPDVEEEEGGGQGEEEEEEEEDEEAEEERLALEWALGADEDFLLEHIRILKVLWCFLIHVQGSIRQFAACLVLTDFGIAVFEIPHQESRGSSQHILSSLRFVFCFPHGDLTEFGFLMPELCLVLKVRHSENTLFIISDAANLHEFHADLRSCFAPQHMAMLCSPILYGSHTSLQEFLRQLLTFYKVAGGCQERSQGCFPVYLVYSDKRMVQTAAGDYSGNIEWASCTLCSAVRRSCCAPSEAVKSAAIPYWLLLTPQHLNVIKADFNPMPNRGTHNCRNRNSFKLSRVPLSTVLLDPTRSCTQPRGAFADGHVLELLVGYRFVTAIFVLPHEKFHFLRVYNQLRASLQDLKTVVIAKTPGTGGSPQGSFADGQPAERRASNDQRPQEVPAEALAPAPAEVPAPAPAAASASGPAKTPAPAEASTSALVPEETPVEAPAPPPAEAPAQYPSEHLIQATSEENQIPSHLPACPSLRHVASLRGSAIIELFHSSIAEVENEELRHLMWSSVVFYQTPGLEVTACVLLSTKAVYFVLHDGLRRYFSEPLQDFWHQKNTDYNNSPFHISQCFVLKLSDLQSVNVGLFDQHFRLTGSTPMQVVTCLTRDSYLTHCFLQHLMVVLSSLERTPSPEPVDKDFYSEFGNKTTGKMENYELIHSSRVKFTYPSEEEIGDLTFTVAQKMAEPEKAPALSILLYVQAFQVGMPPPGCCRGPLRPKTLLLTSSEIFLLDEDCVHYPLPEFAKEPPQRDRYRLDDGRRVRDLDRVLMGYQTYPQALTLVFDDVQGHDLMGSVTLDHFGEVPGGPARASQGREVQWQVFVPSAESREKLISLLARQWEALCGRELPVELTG

CC(C)[C@@H]1[C@H]2CC[C@H](C2)[C@H]1N (racemic) [BRD-4780, 2-endo-amino-3-exo-isopropylbicyclo[2.2.1]heptane]
TMED9 abundance in patient organoids [1]: reduced TMED9 to levels comparable to cells in N1 organoids
Nischarin thermal stability / engagement (CETSA) [2]: no evidence indicative of direct engagement; also recorded: did not bind Nischarin
